The text below walks through data of ChEMBL document CHEMBL5653631, “A Potent and Selective ULK1 Inhibitor Suppresses Autophagy and Sensitizes Cancer Cells to Nutrient Stress” (iScience, 2018).

Molecules are shown by their SMILES.

The target in assay [1] is Tau-tubulin kinase 2 (Homo sapiens) (UniProt Q6IQ55). Put plainly: Inhibition of human recombinant TTBK2 at 40 nM in presence of ATP by radiometric assay relative to control.
In assay [2] the target is MAP kinase-activated protein kinase 2 (Homo sapiens) (UniProt P49137). Put plainly: Inhibition of human recombinant MAPKAPK2 at 500 nM related to control ULK1.
In assay [3] the target is Fibroblast growth factor receptor 4 (Homo sapiens) (UniProt P22455). Put plainly: Inhibition of human recombinant FGFR4 at 500 nM in presence of ATP by radiometric assay relative to control.
Assay [4] has as its target Dual specificity mitogen-activated protein kinase kinase 2 (Homo sapiens) (UniProt P36507). Put plainly: Inhibition of human recombinant MAP2K2 at 15 nM in presence of ATP by radiometric assay relative to control.
In assay [5] the target is Rho-associated protein kinase 2 (Homo sapiens) (UniProt O75116). Put plainly: Inhibition of human recombinant ROCK2 at 15 nM related to control ULK1.
The target in assay [6] is T1, Ephrin type-A receptor 3 (Homo sapiens) (UniProt P29320).
T1 sequence (whole entry): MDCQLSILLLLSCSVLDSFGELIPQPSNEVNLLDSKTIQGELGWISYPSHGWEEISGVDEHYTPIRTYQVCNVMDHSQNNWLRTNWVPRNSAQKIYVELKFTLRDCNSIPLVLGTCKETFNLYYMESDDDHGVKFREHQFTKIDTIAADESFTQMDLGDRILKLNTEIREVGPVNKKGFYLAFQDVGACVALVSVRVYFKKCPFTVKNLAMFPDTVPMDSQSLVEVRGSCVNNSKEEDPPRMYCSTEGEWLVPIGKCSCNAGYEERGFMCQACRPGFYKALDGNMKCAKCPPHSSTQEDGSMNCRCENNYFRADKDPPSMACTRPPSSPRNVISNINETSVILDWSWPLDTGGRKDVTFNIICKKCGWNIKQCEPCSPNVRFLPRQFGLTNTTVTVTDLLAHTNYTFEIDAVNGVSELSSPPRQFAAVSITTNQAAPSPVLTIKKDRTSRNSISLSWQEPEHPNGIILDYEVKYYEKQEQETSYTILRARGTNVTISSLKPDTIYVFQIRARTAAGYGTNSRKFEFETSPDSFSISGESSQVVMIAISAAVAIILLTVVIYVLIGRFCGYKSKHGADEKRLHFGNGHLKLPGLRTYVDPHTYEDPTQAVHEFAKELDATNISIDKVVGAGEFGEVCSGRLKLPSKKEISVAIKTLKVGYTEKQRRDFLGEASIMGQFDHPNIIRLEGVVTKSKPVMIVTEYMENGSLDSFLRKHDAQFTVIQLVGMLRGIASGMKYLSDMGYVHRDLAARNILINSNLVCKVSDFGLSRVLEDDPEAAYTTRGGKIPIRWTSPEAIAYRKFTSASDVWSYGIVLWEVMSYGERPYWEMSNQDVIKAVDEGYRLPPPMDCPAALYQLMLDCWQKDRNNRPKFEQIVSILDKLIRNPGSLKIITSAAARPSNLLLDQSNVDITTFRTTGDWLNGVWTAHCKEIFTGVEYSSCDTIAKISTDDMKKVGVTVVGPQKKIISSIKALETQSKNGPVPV
Put plainly: Inhibition of human recombinant EphA3 at 15 nM related to control ULK1.

Assay [7] deals with T2, Homeodomain-interacting protein kinase 4 (Homo sapiens) (UniProt Q8NE63).
T2 sequence (whole entry): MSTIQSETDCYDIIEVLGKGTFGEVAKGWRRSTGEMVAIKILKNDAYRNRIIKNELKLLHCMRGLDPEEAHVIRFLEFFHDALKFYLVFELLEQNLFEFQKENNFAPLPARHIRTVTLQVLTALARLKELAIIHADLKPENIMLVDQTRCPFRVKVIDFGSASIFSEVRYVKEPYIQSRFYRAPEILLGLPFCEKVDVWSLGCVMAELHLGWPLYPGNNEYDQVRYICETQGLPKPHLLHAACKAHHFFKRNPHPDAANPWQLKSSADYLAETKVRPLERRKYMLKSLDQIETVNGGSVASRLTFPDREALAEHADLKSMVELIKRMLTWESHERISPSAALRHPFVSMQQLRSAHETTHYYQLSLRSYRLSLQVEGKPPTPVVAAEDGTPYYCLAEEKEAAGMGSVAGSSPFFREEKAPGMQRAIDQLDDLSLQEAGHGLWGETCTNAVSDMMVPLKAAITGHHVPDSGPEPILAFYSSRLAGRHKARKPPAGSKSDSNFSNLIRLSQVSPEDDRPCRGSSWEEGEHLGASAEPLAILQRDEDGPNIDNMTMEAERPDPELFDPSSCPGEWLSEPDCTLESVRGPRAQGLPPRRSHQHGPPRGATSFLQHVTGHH
Put plainly: Inhibition of human recombinant HIPK4 at 15 nM in presence of ATP by radiometric assay relative to control.

Assay [8] has as its target T3, Serine/threonine-protein kinase TAO3 (Homo sapiens) (UniProt Q9H2K8).
T3 sequence (whole entry): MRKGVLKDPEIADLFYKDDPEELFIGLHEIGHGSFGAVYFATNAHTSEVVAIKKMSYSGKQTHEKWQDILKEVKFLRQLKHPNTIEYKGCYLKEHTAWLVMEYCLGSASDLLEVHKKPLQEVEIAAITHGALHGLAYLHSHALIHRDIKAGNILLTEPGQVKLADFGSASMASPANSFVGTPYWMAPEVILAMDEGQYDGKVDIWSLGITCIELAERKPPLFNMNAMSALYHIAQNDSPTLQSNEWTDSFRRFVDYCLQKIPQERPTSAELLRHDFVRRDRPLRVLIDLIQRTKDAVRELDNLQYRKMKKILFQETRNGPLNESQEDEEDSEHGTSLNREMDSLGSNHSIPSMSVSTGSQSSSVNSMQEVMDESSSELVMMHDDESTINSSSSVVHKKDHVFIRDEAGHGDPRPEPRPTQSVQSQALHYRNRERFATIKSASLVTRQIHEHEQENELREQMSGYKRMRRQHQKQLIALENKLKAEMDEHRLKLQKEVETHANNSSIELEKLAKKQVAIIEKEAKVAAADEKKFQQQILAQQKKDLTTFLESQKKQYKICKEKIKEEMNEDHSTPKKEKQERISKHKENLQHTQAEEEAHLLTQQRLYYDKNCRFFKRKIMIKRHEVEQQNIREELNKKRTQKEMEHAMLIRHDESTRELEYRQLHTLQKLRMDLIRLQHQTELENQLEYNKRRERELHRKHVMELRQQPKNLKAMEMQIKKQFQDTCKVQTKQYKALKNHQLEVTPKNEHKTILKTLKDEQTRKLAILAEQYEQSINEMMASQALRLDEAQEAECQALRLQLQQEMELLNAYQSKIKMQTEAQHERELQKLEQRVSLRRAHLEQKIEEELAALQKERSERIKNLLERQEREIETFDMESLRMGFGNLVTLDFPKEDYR
Put plainly: Inhibition of human recombinant TAO3 at 15 nM in presence of ATP by radiometric assay relative to control.

In assay [9] the target is Fibroblast growth factor receptor 2 (Homo sapiens) (UniProt P21802). Put plainly: Inhibition of human recombinant FGFR2 at 15 nM related to control ULK1.
Sequence of Fibroblast growth factor receptor 2 (Homo sapiens) (P21802 22-821 limits assumed): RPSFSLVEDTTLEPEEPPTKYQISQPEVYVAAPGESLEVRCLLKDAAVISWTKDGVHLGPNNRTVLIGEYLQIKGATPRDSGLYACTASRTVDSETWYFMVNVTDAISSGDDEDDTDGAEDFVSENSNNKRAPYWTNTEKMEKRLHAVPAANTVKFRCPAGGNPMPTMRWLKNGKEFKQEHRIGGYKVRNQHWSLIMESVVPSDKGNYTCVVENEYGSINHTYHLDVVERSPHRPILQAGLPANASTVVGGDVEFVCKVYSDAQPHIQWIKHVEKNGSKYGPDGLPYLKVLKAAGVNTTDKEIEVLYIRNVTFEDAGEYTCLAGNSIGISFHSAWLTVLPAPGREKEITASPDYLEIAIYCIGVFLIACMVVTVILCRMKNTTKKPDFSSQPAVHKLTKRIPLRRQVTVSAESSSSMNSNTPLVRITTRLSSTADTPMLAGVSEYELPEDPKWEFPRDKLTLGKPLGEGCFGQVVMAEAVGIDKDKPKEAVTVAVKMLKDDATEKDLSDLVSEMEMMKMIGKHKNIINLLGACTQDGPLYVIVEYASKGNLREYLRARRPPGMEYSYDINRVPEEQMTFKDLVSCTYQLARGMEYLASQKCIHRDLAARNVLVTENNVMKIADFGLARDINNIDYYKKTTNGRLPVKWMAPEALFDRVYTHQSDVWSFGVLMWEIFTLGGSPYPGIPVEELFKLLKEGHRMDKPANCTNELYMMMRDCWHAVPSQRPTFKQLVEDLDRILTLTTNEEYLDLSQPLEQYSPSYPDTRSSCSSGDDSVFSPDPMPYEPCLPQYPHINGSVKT

Sequence of Fibroblast growth factor receptor 4 (Homo sapiens) (P22455 22-802 limits assumed): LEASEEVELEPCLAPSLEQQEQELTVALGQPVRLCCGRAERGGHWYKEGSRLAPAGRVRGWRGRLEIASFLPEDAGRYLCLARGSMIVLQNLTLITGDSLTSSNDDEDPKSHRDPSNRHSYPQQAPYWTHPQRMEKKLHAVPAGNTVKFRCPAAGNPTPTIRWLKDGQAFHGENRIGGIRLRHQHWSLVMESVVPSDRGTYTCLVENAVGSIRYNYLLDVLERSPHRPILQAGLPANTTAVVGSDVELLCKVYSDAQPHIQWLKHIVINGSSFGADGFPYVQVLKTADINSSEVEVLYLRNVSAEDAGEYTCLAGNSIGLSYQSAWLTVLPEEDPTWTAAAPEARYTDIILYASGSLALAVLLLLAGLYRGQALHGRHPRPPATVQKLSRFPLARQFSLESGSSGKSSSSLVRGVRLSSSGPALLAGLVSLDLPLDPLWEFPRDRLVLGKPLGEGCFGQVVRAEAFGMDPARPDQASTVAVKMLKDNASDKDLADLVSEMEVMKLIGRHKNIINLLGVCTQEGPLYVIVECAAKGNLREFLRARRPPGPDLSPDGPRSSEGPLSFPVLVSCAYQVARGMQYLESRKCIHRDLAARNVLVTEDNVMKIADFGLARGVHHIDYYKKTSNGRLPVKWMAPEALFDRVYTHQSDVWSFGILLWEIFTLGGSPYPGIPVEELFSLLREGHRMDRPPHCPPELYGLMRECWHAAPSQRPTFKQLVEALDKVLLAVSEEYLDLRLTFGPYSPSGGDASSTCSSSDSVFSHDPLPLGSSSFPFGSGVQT
Sequence of Tau-tubulin kinase 2 (Homo sapiens) (Q6IQ55 whole entry): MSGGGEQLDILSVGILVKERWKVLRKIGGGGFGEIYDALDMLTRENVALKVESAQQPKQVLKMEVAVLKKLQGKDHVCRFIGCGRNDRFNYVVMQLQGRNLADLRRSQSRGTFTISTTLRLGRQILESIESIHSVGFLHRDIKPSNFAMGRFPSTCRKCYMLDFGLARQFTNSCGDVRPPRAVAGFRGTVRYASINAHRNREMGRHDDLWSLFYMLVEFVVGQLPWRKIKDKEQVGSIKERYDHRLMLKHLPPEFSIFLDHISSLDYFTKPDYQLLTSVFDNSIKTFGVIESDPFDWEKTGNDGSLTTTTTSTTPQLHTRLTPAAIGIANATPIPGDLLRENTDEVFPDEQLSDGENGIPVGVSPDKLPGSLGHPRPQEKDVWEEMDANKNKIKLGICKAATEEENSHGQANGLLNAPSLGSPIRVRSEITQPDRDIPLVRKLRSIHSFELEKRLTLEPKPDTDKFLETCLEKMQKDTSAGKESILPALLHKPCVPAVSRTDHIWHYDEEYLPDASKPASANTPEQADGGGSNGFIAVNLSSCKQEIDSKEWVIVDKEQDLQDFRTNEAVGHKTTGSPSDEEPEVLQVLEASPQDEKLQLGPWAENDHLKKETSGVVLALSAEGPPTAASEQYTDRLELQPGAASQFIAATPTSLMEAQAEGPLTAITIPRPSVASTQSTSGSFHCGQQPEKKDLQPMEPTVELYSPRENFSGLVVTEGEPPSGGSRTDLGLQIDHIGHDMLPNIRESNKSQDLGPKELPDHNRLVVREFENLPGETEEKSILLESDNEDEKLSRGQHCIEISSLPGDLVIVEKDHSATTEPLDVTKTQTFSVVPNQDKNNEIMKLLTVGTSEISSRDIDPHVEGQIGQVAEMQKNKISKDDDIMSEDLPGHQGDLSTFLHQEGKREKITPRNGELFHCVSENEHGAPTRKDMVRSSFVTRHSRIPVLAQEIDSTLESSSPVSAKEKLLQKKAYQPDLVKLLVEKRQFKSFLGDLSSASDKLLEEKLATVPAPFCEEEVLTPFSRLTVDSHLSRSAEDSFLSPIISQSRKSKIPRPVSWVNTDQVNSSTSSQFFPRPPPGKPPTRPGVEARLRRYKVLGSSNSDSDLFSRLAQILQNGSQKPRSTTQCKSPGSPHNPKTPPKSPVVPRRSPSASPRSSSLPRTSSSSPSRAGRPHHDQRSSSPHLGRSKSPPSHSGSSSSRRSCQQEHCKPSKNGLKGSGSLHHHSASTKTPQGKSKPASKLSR
Sequence of Rho-associated protein kinase 2 (Homo sapiens) (O75116 whole entry, looked up): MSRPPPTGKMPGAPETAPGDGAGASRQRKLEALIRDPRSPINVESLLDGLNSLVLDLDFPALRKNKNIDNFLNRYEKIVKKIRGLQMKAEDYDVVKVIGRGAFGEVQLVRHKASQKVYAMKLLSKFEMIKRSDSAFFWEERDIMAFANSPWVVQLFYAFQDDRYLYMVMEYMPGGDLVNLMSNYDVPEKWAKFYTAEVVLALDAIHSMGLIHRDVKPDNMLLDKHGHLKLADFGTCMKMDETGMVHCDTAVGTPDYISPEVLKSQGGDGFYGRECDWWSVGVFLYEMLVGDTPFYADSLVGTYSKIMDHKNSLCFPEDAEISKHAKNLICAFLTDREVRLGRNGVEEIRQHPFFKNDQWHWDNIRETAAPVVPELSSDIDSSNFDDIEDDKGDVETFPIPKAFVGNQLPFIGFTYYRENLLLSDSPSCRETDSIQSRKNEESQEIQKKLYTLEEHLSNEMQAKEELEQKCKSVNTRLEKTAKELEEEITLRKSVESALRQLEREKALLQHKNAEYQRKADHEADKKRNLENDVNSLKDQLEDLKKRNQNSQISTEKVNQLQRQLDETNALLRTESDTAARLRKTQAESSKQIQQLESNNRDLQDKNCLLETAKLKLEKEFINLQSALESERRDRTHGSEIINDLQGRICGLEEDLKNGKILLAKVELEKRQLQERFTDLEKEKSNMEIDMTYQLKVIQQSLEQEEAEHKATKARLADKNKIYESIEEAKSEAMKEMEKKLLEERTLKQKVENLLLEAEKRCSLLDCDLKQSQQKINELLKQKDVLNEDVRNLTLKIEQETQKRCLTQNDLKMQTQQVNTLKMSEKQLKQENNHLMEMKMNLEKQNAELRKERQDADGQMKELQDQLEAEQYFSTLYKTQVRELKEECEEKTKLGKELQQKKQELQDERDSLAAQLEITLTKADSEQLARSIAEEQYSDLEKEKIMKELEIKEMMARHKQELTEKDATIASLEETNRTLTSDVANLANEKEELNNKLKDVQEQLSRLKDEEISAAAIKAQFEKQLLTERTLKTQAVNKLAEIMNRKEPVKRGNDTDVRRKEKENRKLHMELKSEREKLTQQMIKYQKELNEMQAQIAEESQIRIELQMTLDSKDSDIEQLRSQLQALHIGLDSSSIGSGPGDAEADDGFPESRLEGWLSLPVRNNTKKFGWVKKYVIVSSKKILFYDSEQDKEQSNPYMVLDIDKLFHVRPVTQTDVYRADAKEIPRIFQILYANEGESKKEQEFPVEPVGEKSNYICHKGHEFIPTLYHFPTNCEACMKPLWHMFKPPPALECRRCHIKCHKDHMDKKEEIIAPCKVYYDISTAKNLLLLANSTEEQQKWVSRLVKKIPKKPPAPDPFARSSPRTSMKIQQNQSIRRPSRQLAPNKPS
Sequence of MAP kinase-activated protein kinase 2 (Homo sapiens) (P49137 whole entry, looked up): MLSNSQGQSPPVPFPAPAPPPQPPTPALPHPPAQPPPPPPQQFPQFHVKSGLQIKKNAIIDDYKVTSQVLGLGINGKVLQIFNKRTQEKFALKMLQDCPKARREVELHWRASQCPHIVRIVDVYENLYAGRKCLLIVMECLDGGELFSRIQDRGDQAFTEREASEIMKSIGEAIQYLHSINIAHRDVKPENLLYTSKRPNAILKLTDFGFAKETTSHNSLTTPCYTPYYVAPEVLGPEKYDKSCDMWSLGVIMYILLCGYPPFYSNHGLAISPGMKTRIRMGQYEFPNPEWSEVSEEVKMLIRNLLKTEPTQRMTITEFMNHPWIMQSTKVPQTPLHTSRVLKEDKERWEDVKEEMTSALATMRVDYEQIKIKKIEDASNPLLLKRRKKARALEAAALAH
Sequence of Dual specificity mitogen-activated protein kinase kinase 2 (Homo sapiens) (P36507 whole entry): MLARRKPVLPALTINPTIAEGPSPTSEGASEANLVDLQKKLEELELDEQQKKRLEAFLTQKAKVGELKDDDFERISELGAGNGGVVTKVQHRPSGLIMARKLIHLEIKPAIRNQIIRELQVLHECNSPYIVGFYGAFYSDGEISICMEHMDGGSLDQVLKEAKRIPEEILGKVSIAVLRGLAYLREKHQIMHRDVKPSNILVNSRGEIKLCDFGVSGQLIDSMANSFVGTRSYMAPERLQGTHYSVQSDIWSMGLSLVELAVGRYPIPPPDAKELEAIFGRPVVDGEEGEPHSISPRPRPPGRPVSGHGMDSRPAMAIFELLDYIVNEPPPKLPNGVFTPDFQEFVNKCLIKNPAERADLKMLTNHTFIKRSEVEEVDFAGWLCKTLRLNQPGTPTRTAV

Consider `O=C(N[C@@H](C1CC1)C(F)(F)F)c1cc(-c2cnn3cc(-c4ccc(F)cc4)cnc23)cs1`, for which the inhibition in [1] turned out to be 0%.
On to `CNC(=O)c1ccccc1Oc1nc(Nc2cc(OC)c(OC)c(OC)c2)ncc1Br`, for which, in assay [2], the fold change (FC) stood at 0. In assay [3], the inhibition is 10%.
As for `CC(C)[C@H](NC(=O)c1cc(-c2cnn3cc(-c4ccc(OCCN5CCCCC5)cc4)cnc23)cs1)C(F)(F)F`, the inhibition turned out to be 0% in assay [4], 0% in [7] and 1% in [8]. For the same compound, the fold change (FC) in assay [5] turned out to be 0; in assay [6], 0.03; in assay [9] it was 0.

By inhibition is commonly meant the drop in the measured response relative to a control, in per cent.
